Results taken from the kinase profiling compilation of Christmann-Franck et al. (2016).

Key:
Assay in all cases: KINOMEscan competition binding
Details in all cases: compound 10.0 µM
TLK2 (human) = TLK2 (human) (UniProt Q86UE8)
STK32A (human) = STK32A (human) (UniProt Q8WU08)
CLK2 (human) = CLK2 (human) (UniProt P49760)
[1] = tested on: FLT3 (human), P36888 [D835Y]
RIOK2 (human) = RIOK2 (human) (UniProt Q9BVS4)
SNRK (human) = SNRK (human) (UniProt Q9NRH2)
PIK3CG (human) = PIK3CG (human) (UniProt P48736)
BMPR1A (human) = BMPR1A (human) (UniProt P36894)
[2] = tested on: BMX (human), P51813 [V600E]
MAPK4 (human) = MAPK4 (human) (UniProt P31152)
CDK5 (human) = CDK5 (human) (UniProt Q00535)
BMPR2 (human) = BMPR2 (human) (UniProt Q13873)
TXK (human) = TXK (human) (UniProt P42681)
MARK1 (human) = MARK1 (human) (UniProt Q9P0L2)
CRK2 (P.falciparum) = CRK2 (P.falciparum) (UniProt P61075)
MAP3K15 (human) = MAP3K15 (human) (UniProt Q6ZN16)
GRK4 (human) = GRK4 (human) (UniProt P32298)
MAPK13 (human) = MAPK13 (human) (UniProt O15264)
CLK1 (human) = CLK1 (human) (UniProt P49759)
BRSK2 (human) = BRSK2 (human) (UniProt Q8IWQ3)
PDGFRA (human) = PDGFRA (human) (UniProt P16234)
MAP3K10 (human) = MAP3K10 (human) (UniProt Q02779)
IGF1R (human) = IGF1R (human) (UniProt P08069)
CDK14 (human) = CDK14 (human) (UniProt O94921)
MAP4K1 (human) = MAP4K1 (human) (UniProt Q92918)
TRPM6 (human) = TRPM6 (human) (UniProt Q9BX84)
MAPKAPK2 (human) = MAPKAPK2 (human) (UniProt P49137)
EPHA3 (human) = EPHA3 (human) (UniProt P29320)
PRKCD (human) = PRKCD (human) (UniProt Q05655)
CDC42BPA (human) = CDC42BPA (human) (UniProt Q5VT25)
[3] = tested on: PIK3CA (human), P42336 [H1047L]
PRKACB (human) = PRKACB (human) (UniProt P22694)
PRKAA1 (human) = PRKAA1 (human) (UniProt Q13131)
ADCK3 (human) = ADCK3 (human) (UniProt Q8NI60)
DAPK3 (human) = DAPK3 (human) (UniProt O43293)
NEK11 (human) = NEK11 (human) (UniProt Q8NG66)
PIM3 (human) = PIM3 (human) (UniProt Q86V86)
[4] = tested on: EGFR (human), P00533 [G719C]
EPHA8 (human) = EPHA8 (human) (UniProt P29322)
[5] = tested on: RET (human), P07949 [V804L]

Sequence of SNRK (human) (Q9NRH2 whole entry, looked up): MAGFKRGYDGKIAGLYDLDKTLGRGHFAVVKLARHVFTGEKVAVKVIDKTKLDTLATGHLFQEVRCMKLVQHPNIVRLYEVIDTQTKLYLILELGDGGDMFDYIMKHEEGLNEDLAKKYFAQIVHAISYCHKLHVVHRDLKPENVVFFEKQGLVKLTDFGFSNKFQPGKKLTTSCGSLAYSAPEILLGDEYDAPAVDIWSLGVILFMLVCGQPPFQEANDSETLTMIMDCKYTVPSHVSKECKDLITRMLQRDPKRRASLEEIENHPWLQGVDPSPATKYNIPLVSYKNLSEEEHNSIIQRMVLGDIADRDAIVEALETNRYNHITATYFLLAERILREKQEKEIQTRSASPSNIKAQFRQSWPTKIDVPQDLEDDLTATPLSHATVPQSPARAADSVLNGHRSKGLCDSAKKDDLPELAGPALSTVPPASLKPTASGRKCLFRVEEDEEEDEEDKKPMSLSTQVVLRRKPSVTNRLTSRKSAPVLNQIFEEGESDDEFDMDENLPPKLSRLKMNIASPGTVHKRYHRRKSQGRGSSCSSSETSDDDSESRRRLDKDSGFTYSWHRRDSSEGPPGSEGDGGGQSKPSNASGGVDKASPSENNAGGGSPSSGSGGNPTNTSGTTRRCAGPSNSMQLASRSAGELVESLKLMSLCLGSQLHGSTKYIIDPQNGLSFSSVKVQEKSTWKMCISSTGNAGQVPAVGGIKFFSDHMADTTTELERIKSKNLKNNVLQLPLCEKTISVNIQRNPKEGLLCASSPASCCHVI
Sequence of TXK (human) (P42681 whole entry, looked up): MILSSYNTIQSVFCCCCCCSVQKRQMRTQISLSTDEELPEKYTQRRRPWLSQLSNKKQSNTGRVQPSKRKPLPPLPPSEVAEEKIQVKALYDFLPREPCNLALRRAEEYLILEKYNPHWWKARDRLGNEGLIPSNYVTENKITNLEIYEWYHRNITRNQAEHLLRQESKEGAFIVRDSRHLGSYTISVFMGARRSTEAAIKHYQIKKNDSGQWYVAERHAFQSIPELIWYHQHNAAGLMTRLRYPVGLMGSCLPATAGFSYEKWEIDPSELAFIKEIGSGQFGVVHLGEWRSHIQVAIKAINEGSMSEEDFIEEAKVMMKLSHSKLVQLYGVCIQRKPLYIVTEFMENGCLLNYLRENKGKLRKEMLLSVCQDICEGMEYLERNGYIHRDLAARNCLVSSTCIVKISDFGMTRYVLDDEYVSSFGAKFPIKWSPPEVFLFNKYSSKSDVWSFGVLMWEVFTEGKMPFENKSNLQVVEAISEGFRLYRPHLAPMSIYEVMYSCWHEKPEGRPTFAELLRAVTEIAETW
Sequence of TRPM6 (human) (Q9BX84 whole entry, looked up): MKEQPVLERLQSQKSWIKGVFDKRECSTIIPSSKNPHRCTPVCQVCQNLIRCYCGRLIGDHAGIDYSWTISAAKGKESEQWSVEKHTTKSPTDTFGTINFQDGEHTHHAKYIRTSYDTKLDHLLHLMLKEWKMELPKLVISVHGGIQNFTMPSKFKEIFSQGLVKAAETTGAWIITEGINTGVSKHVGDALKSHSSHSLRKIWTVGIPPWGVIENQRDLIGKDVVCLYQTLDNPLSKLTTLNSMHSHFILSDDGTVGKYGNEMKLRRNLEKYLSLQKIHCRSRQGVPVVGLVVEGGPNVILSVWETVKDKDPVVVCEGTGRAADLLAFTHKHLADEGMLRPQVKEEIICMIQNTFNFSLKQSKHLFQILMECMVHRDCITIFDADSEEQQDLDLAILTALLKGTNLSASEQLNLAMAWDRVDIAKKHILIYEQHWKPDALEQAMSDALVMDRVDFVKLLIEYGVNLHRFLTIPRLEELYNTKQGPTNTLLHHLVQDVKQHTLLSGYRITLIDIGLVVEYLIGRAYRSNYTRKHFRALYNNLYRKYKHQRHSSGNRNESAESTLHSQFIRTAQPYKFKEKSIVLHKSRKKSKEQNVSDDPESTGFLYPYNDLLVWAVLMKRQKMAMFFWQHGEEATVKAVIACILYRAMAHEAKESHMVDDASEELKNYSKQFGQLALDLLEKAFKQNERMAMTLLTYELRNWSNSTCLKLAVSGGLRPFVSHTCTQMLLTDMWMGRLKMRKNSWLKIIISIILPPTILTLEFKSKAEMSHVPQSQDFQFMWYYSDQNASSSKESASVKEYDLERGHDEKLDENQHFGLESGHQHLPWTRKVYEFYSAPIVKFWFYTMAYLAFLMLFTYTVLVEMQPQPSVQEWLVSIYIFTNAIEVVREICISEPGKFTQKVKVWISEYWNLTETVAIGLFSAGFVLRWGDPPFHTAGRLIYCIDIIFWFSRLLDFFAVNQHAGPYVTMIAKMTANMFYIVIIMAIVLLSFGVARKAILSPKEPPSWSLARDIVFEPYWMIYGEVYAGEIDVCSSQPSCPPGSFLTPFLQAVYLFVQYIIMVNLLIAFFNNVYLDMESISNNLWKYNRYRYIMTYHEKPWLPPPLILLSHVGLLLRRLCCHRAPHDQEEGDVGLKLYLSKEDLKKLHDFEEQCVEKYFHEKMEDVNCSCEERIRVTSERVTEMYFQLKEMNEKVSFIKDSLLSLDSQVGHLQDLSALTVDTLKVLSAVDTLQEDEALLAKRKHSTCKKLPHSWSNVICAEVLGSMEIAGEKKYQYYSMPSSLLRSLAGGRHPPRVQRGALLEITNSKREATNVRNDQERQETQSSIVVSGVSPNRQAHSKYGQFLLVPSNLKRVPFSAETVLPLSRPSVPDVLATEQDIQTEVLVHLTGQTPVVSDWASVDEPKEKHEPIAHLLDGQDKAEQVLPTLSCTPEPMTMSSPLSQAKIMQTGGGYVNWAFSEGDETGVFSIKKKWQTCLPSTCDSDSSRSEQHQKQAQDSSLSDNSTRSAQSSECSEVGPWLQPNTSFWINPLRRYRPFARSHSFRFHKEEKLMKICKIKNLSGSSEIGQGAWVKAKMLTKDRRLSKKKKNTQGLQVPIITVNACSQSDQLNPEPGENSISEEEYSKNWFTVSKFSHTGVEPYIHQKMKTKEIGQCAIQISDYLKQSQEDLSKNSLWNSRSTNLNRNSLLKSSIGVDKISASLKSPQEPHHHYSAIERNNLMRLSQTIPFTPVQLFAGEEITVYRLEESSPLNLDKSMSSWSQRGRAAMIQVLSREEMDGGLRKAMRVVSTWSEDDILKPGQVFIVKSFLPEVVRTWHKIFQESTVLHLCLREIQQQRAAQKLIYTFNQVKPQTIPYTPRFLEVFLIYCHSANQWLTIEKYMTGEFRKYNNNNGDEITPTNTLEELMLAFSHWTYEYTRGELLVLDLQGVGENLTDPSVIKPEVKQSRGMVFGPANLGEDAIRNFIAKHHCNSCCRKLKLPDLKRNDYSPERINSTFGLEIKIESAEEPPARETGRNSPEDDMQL
Sequence of RIOK2 (human) (Q9BVS4 whole entry, looked up): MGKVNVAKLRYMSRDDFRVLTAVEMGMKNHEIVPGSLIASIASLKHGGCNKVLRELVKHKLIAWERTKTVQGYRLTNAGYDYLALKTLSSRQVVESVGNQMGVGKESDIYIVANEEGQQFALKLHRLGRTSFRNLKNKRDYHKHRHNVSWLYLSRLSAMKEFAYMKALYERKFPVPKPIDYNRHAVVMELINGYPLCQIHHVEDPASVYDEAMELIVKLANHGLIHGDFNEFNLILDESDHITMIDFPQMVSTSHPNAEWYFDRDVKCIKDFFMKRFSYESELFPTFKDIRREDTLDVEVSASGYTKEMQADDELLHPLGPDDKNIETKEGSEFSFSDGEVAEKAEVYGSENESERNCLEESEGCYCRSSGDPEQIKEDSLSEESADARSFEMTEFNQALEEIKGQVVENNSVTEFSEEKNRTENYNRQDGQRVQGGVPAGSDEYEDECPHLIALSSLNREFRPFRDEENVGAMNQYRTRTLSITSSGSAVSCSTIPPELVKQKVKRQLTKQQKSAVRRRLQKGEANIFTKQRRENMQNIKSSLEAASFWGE
Sequence of BMPR2 (human) (Q13873 whole entry, looked up): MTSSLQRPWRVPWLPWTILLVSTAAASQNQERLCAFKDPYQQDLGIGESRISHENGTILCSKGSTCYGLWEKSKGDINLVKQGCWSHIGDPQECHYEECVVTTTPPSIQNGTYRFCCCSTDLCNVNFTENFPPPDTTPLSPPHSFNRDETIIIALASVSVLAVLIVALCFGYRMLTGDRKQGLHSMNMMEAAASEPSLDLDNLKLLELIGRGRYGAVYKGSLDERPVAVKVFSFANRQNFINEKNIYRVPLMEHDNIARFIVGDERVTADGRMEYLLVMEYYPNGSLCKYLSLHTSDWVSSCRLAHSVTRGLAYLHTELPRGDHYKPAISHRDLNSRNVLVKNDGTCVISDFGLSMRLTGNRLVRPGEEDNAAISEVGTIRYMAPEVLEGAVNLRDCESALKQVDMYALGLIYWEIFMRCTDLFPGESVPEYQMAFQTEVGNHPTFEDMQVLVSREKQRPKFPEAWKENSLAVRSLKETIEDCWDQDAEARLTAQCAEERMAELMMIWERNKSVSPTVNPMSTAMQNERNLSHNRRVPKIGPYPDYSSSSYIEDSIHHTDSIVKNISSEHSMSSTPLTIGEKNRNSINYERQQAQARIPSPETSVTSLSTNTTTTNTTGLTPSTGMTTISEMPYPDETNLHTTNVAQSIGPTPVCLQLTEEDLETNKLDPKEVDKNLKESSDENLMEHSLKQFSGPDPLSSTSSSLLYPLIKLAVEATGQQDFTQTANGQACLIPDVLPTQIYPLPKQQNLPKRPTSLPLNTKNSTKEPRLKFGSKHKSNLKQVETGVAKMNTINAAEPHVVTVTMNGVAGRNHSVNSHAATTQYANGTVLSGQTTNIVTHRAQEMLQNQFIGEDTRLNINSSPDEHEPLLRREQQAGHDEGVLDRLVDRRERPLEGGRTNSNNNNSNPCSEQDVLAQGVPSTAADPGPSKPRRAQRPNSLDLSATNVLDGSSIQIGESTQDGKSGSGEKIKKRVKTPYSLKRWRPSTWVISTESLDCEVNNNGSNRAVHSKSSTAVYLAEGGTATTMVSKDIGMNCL

Row | Structure (SMILES) | kinase still bound, per cent of control (TLK2 (human)) | kinase still bound, per cent of control (STK32A (human)) | kinase still bound, per cent of control (CLK2 (human)) | kinase still bound, per cent of control [1] | kinase still bound, per cent of control (RIOK2 (human)) | kinase still bound, per cent of control (SNRK (human)) | kinase still bound, per cent of control (PIK3CG (human)) | kinase still bound, per cent of control (BMPR1A (human)) | kinase still bound, per cent of control [2] | kinase still bound, per cent of control (MAPK4 (human)) | kinase still bound, per cent of control (CDK5 (human)) | kinase still bound, per cent of control (BMPR2 (human)) | kinase still bound, per cent of control (TXK (human)) | kinase still bound, per cent of control (MARK1 (human)) | kinase still bound, per cent of control (CRK2 (P.falciparum)) | kinase still bound, per cent of control (MAP3K15 (human)) | kinase still bound, per cent of control (GRK4 (human)) | kinase still bound, per cent of control (MAPK13 (human)) | kinase still bound, per cent of control (CLK1 (human)) | kinase still bound, per cent of control (BRSK2 (human)) | further results
1 | COc1cc2ncnc(Nc3cccc(Cl)c3)c2cc1OC | 100% | 63% | 53% | 11% | 43% | 71% | 44% | 55% | 55% | 16% | 100% | 100% | 63% | 100% | 100% | 34% | 100% | 100% | 59% | 45% | kinase still bound, per cent of control (PDGFRA (human)): 29%; kinase still bound, per cent of control (MAP3K10 (human)): 100%; kinase still bound, per cent of control (IGF1R (human)): 100%; kinase still bound, per cent of control (CDK14 (human)): 88%; kinase still bound, per cent of control (MAP4K1 (human)): 93%; kinase still bound, per cent of control (TRPM6 (human)): 77%; kinase still bound, per cent of control (MAPKAPK2 (human)): 100%; kinase still bound, per cent of control (EPHA3 (human)): 28%; kinase still bound, per cent of control (PRKCD (human)): 97%; kinase still bound, per cent of control (CDC42BPA (human)): 77%; kinase still bound, per cent of control [3]: 56%; kinase still bound, per cent of control (PRKACB (human)): 100%; kinase still bound, per cent of control (PRKAA1 (human)): 100%; kinase still bound, per cent of control (ADCK3 (human)): 56%; kinase still bound, per cent of control (DAPK3 (human)): 35%; kinase still bound, per cent of control (NEK11 (human)): 99%; kinase still bound, per cent of control (PIM3 (human)): 54%; kinase still bound, per cent of control [4]: 0.1%; kinase still bound, per cent of control (EPHA8 (human)): 38%; kinase still bound, per cent of control [5]: 100%
2 | C=CC(=O)Nc1ccc(C(=O)c2sc(Nc3ccc(N4CCN(C)CC4)cc3OC)nc2N)cc1 | 83% | 52% | 0% | 23% | 53% | 0.2% | 96% | 91% | 92% | 100% | 86% | 100% | 100% | 93% | 92% | 9.2% | 52% | 100% | 0.55% | 72% | kinase still bound, per cent of control (PDGFRA (human)): 100%; kinase still bound, per cent of control (MAP3K10 (human)): 91%; kinase still bound, per cent of control (IGF1R (human)): 86%; kinase still bound, per cent of control (CDK14 (human)): 82%; kinase still bound, per cent of control (MAP4K1 (human)): 84%; kinase still bound, per cent of control (TRPM6 (human)): 35%; kinase still bound, per cent of control (MAPKAPK2 (human)): 99%; kinase still bound, per cent of control (EPHA3 (human)): 80%; kinase still bound, per cent of control (PRKCD (human)): 100%; kinase still bound, per cent of control (CDC42BPA (human)): 100%; kinase still bound, per cent of control [3]: 100%; kinase still bound, per cent of control (PRKACB (human)): 92%; kinase still bound, per cent of control (PRKAA1 (human)): 100%; kinase still bound, per cent of control (ADCK3 (human)): 42%; kinase still bound, per cent of control (DAPK3 (human)): 2.6%; kinase still bound, per cent of control (NEK11 (human)): 68%; kinase still bound, per cent of control (PIM3 (human)): 87%; kinase still bound, per cent of control [4]: 3%; kinase still bound, per cent of control (EPHA8 (human)): 88%; kinase still bound, per cent of control [5]: 100%
3 | N#Cc1cc(-c2ccnc(Nc3ccc(-n4cnc(-c5cccnc5)n4)cc3)n2)cc(N2CCOCC2)c1 | 65% | 100% | 15% | 14% | 1.4% | 90% | 0.75% | 28% | 72% | 5% | 79% | 72% | 60% | 84% | 100% | 66% | 37% | 61% | 2.5% | 98% | kinase still bound, per cent of control (PDGFRA (human)): 1.2%; kinase still bound, per cent of control (MAP3K10 (human)): 72%; kinase still bound, per cent of control (IGF1R (human)): 51%; kinase still bound, per cent of control (CDK14 (human)): 35%; kinase still bound, per cent of control (MAP4K1 (human)): 26%; kinase still bound, per cent of control (TRPM6 (human)): 100%; kinase still bound, per cent of control (MAPKAPK2 (human)): 100%; kinase still bound, per cent of control (EPHA3 (human)): 58%; kinase still bound, per cent of control (PRKCD (human)): 65%; kinase still bound, per cent of control (CDC42BPA (human)): 68%; kinase still bound, per cent of control [3]: 100%; kinase still bound, per cent of control (PRKACB (human)): 100%; kinase still bound, per cent of control (PRKAA1 (human)): 84%; kinase still bound, per cent of control (ADCK3 (human)): 38%; kinase still bound, per cent of control (DAPK3 (human)): 73%; kinase still bound, per cent of control (NEK11 (human)): 100%; kinase still bound, per cent of control (PIM3 (human)): 78%; kinase still bound, per cent of control [4]: 71%; kinase still bound, per cent of control (EPHA8 (human)): 93%; kinase still bound, per cent of control [5]: 100%
